Data: patent publication US10357486B2, “Treatment of cognitive impairment with PDE4 inhibitor” (Universiteit Maastricht, priority 2013, dated 2019)

Key:
Assay type in all cases: in vivo, human
[1] = Plasma concentration levels of roflumilast and roflumilast-N-oxide in humans
Text: An interim analysis has been performed based on the data of 9 subjects of the Impaired Elderly group and 4 subjects of the Healthy Elderly group. For this purpose, cognitive battery test scores (VLT, SMT, Stroop task and BL-VAS) and concentrations of roflumilast and roflumilast-N-oxide in plasma have been analysed and summarized by dose over each scheduled sampling time using descriptive statistics.

[2] = system: 60 to 80 years old subjects (Impaired Elderly and Healthy Elderly); assay: Spatial Memory Task and Stroop task in 60 to 80 years old subjects, interim analysis; details: 100, 250, 1000 mcg
Procedure: The study is conducted according to a double-blind, placebo-controlled, four-period cross-over design. Forty healthy subjects, both male and female within an age range of 60 to 80 years are planned to be included in the study in 2 groups: 1) 20 subjects with a memory performance between 1-2 Standard Deviation below the average for their age, gender, and educated level (Impaired Elderly) and 2) 20 subjects with age (±3 years), gender, and educational level matched (in order to speed up the study matching was stopped after the interim analysis) with an average memory performance between 0.5 Standard Deviation below and 0.5 Standard Deviation above from normative values (Healthy Elderly). Classification in terms of impaired or healthy elderly will be determined by a one-off testing of memory performance using the Rey Verbal Learning Task (Rey A; L'examen psychologique dans les cas d'encephalopathy traumatique 1958 Paris; Presses Universitaire de France; or Van der Elst et al; J Int Neuropsychol Soc 2005, 11 (3), pp 290-302) according to fully standardized procedures as applied in The Maastricht Aging Study (Jolles et al; Maastricht Aging Study; determinants of cognitive aging; Maastricht, The Netherlands, Neuropsych Publishers 1995). […]

[3] = system: healthy adults (18 to 35 years); assay: Verbal Learning Task (VLT) in healthy adults, 18 to 35 years
Text: The objective of this proof-of-concept study was to validate Roflumilast as cognitive enhancer using a translational behavior (i.e., cognitive testing)—EEG (i.e., brain electrical activity) approach.
Verbal Learning Task Analysis_The study utilized Verbal Learning Task (VLT) to analyze the increased number of words remembered following roflumilast administration. The VLT consisted of displaying 30 monosyllable words on a computer screen for a period of 60 seconds. Immediately after the presentation of the words on the computer screen subjects were asked to report as many words as they could recall by memory. This process (presentation and recall) was repeated further two times. In addition, 45 min and 24 h after the last presentation, subjects were again asked to report as many words as they could recall by memory. The set of three recall trials was conducted 60 minutes following administration of the roflumilast therapy.
Statistical Data Analyses Human data was analyzed using IBM SPSS Statistics version 20. General Linear Models for repeated measures were applied with the placebo condition included as contrast. Statistical outcomes for Tests of Within-Subjects Effects and
Tests of Within-Subjects Contrasts were regarded for immediate and delayed free recall scores and for the summed immediate recall score (i.e. immediate 1+immediate 2+immediate 3). The factor Treatment (4 levels; placebo, roflumilast 100 mcg, roflumilast 300 mcg and roflumilast 1000 mcg) was included as a within subjects factor. For the analysis of the EEG data, the factor Channel (5 levels; Fz, FCz, Cz, CPz, and Pz) was included as a second within subjects factor. Peak and latency values of three memory related ERP's were analysed; i.e. P300, N400 and P600. In case of significant findings (p<0.05) post-hoc t-tests were performed to reveal which of the five midline electrodes contributed to the effect.

O=C(Nc1c(Cl)cncc1Cl)c1ccc(OC(F)F)c(OCC2CC2)c1 [roflumilast, N-(3,5-dichloropyridin-4-yl)-3-cyclopropylmethoxy-4-difluoromethoxybenzamide]
exposure (concentrations in plasma) ([1]; elderly study, interim analysis, 100, 250, 1000 mcg): consistent with those previously reported
steady state plasma concentration levels in once a day repeated dosing compared to once a day single dosing ([1]; humans, once a day (24 h) regimen): about two-fold
difference between placebo and drug treatment in the Spatial Memory Task and Stroop task [2]: No statistically significant differences
placebo-corrected fold-improvement in VLT ([3]; 100 mcg single dose, healthy volunteer study, 3rd trial): 1.12
number of words on the 3rd trial of VLT ([3]; 100 mcg single dose, young volunteers, placebo 21.25): 23.7 words
improvement in number of correct words recalled in VLT (average) ([3]; single oral dose of 100 mcg, after the third trial): 2.5 words
